From patent publication US11446287B2, “Compounds and methods for EP300 or CBP modulation and indications therefor” (Opna Immuno-Oncology SA, priority 2019, dated 2022)

Molecular target: T1, Recombinant human EP300 containing the bromodomain (EP300-BD (1040-1161)) (Homo sapiens, UniProt Q09472)
T1 construct: Recombinant human EP300 bromodomain (EP300-BD (1040-1161)); made in house; host or cells: E. coli BL21-CodonPlus (DE3), modified pET vector
T1 sequence (Q09472 1040-1161): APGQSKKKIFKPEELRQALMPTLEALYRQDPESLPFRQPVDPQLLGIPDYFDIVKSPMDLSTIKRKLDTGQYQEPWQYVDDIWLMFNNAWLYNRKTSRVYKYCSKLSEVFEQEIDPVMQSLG
Assay: EP300 Alphascreen binding assay
Experimental: EP300 Alphascreen Binding Assay
Binding of compounds of Formula (I) with EP300 was assessed using Alphascreen™ binding assay. The inhibition of the interaction between the EP300 bromodomain and its acetylated target protein was measured quantitatively using recombinant EP300 protein, an acetylated Histone 3 peptide and AlphaScreen™ technology. In absence of inhibition of the EP300 protein bound to AlphaScreen™ nickel chelate acceptor beads can interact with the acetylated Histone 3 peptide which is immobilized by the AlphaScreen™ Streptavidin coated beads. This interaction brings donor and acceptor beads in proximity. The close proximity allows the singlet oxygen produced by laser excitation of the donor beads to reach the acceptor beads and generate a luminescence signal. EP300 inhibitors result in a decrease in the proximity signal through an inhibition of the EP300—acetylated peptide interaction.
Recombinant human EP300 containing the bromodomain (EP300-BD (1040-1161)) was prepared and purified as described in protein expression and purification session. The peptide is human Histone H345-64K56Ac-Biotin (Anaspec CA, USA).
Protocol for EP300 assay: All components were prepared in buffer composed of 50 mM HEPES pH 7.5, 50 mM NaCl, 0.01% BSA, 0.01% Triton X-100, 2 mM DTT. Test compounds and DMSO vehicle were diluted 1:50 in buffer and a 4 μL volume is transferred to an Alphaplate. 5.5 μL of EP300 protein and 5.5 μL of peptide were added to wells containing 4 μL of various concentrations of test compounds of Formula (I) or DMSO vehicle in an Alphaplate (PerkinElmer GA, USA) and incubated for 1 hour at room temperature. 5 μL donor and acceptor bead mixture was then added with final concentrations of 7.5 μg/ml. 60 minutes after bead addition, Alpha signal is read on the Envision spectrometer (λEx 680 nm, λEm 520-620 nm). Final concentrations of bromodomain proteins and peptide are as shown below.
All data were normalized to the mean of 16 high and 16 low control wells on each plate. A four parameter curve fit of the following formula was then applied: Y=A+((B−A)/(1+((C/x)^D))) Where ‘A’ is the minimum, ‘B’ is the maximum, ‘C’ is the IC50 and ‘D’ is the Hill slope. Protein Expression and Purification
Recombinant human EP300 bromodomain (EP300-BD (1040-1161)) was expressed in E. coli cells (in a modified pET vector) with an N-terminal six-His tag and purified using a combination of both IMAC (Ni-affinity) and size exclusion chromatography steps.
Recombinant EP300 protein was expressed using the E. coli strain BL21-CodonPlus (DE3) (Agilent Technologies CA, USA). Cells were grown in Terrific Broth (TB) media to an OD600 of 0.7 at 37° C. at which temperature was reduced to 18° C., protein was induced with 1.0 mM isopropyl-β-D-thiogalactopyranoside (“IPTG”) for 20 hours and harvested by centrifugation at 8500×g for 20 minutes. Cells were re-suspended in 0.1M K2PO4 pH 8.0, 250 mM NaCl, 10% Glycerol, 0.75% NP-40, 25 mM Imidazole, with 0.2 mg/ml Lysozyme, 0.2 mM phenylmethanesulfonyl fluoride (“PMSF”), 25 μg/ml DNase I, incubated on ice for 30 minutes and lysed with a cell disruptor (MicroFluidics MA, USA). The lysate was clarified by centrifugation at 20,000×g for 1 hour. The protein was captured with Ni-NTA resin (Life Technologies, USA). Contaminating proteins were washed off with 50 mM HEPES pH 7.5, 500 mM NaCl, and 5% Glycerol. Following 3× wash steps, protein was eluted step wise using 10, 25, 50, 100, 150, and 250 mM Imidazole in 50 mM HEPES pH 7.5, 500 mM NaCl, and 5% glycerol. The protein was further purified using a size exclusion column (26/600 Superdex 200, GE Biosciences NJ, USA) in 10 mM HEPES pH 7.5, […].

**Q.** How did the IC50 turn out when Cc1ccc(S(=O)(=O)n2cc(-c3ccc(C(=O)O)cc3)c3cc(-c4c(C)noc4C)cnc32)cc1 [P-0006, 4-(5-(3,5-dimethylisoxazol-4-yl)-1-tosyl-1H-pyrrolo[2,3-b]pyridin-3-yl)benzoic acid] was run?
**A.** The IC50 was 1000 to 8000 nM.

**Q.** Which IC50 does the source give for Cc1noc(C)c1-c1cnc2c(c1)c(-c1ccc(C(=O)O)cc1)cn2C(c1ccccn1)C1CC1 (stereo not drawn) [P-0007, 4-(1-(cyclopropyl(pyridin-2-yl)methyl)-5-(3,5-dimethylisoxazol-4-yl)-1H-pyrrolo[2,3-b]pyridin-3-yl)benzoic acid] here?
**A.** Its IC50 is 0.1 to 1000 nM.

**Q.** Which IC50 does the source give for Cc1noc(C)c1-c1cnc2c(c1)c(-c1ccc(C(=O)O)cc1)cn2C(c1ccccn1)C1CCC1 (stereo not drawn) [P-0008, 4-(1-(cyclobutyl(pyridin-2-yl)methyl)-5-(3,5-dimethylisoxazol-4-yl)-1H-pyrrolo[2,3-b]pyridin-3-yl)benzoic acid] here?
**A.** Its IC50 is 0.1 to 1000 nM.

**Q.** Cc1noc(C)c1-c1cnc2c(CC3CCC3)cn(-c3ccc(C(=O)O)cn3)c2c1 [P-0009, 6-(3-(cyclobutylmethyl)-6-(3,5-dimethylisoxazol-4-yl)-1H-pyrrolo[3,2-b]pyridin-1-yl)nicotinic acid] was tested. Which IC50 did it give?
**A.** The IC50 was 0.1 to 1000 nM.

**Q.** With Cc1noc(C)c1-c1cnc2c(CC3CC3)cn(-c3ccc(C(=O)O)cn3)c2c1 [P-0010, 6-(3-(cyclopropylmethyl)-6-(3,5-dimethylisoxazol-4-yl)-1H-pyrrolo[3,2-b]pyridin-1-yl)nicotinic acid] as the compound, how does the IC50 read?
**A.** Its IC50 is 0.1 to 1000 nM.

**Q.** How did the IC50 turn out when Cc1noc(C)c1-c1cnc2c(Cc3ccccn3)cn(-c3ccc(C(=O)O)cn3)c2c1 [P-0011, 6-(6-(3,5-dimethylisoxazol-4-yl)-3-(pyridin-2-ylmethyl)-1H-pyrrolo[3,2-b]pyridin-1-yl)nicotinic acid] was run?
**A.** Its IC50 is 0.1 to 1000 nM.

**Q.** With Cc1noc(C)c1-c1cnc2c(c1)c(-c1ccc(C(=O)O)cc1)cn2C(c1ccccn1)c1ccccn1 [P-0012, 4-(1-(di(pyridin-2-yl)methyl)-5-(3,5-dimethylisoxazol-4-yl)-1H-pyrrolo[2,3-b]pyridin-3-yl)benzoic acid] as the compound, how does the IC50 read?
**A.** Its IC50 is 0.1 to 1000 nM.

**Q.** Which IC50 does the source give for Cc1noc(C)c1-c1cnc2c(c1)c(-c1ccc(C(=O)O)cc1F)cn2[C@@H](C)c1ccccn1 [P-0097, (S)-4-(5-(3,5-dimethylisoxazol-4-yl)-1-(1-(pyridin-2-yl)ethyl)-1H-pyrrolo[2,3-b]pyridin-3-yl)-3-fluorobenzoic acid] here?
**A.** The IC50 was 0.1 to 1000 nM.

**Q.** Which IC50 does the source give for COc1ccc(C(=O)O)cc1-n1cc(CC2CCC2)c2ncc(-c3c(C)noc3C)cc21 [P-0098, 3-(3-(cyclobutylmethyl)-6-(3,5-dimethylisoxazol-4-yl)-1H-pyrrolo[3,2-b]pyridin-1-yl)-4-methoxybenzoic acid] here?
**A.** The IC50 was 0.1 to 1000 nM.

**Q.** With Cc1noc(C)c1-c1cnc2c(C(=O)c3cccc(OC(F)F)c3)cn(-c3ccnc(C(=O)O)c3)c2c1 [P-0099, 4-(3-(3-(difluoromethoxy)benzoyl)-6-(3,5-dimethylisoxazol-4-yl)-1H-pyrrolo[3,2-b]pyridin-1-yl)picolinic acid] as the compound, how does the IC50 read?
**A.** The IC50 was 0.1 to 1000 nM.

**Q.** Cc1noc(C)c1-c1cnc2c(Cc3cccc(OC(F)F)c3)cn(-c3ccnc(C(=O)O)c3)c2c1 [P-0100, 4-(3-(3-(difluoromethoxy)benzyl)-6-(3,5-dimethylisoxazol-4-yl)-1H-pyrrolo[3,2-b]pyridin-1-yl)picolinic acid] was tested. Which IC50 did it give?
**A.** Its IC50 is 0.1 to 1000 nM.

**Q.** For Cc1noc(C)c1-c1cnc2c(c1)c(-c1cccc(C(=O)O)c1)cn2CC1CC(F)(F)C1 [P-0101, 3-(1-((3,3-difluorocyclobutyl)methyl)-5-(3,5-dimethylisoxazol-4-yl)-1H-pyrrolo[2,3-b]pyridin-3-yl)benzoic acid], which IC50 is on record?
**A.** The IC50 was 0.1 to 1000 nM.

**Q.** Cc1noc(C)c1-c1cnc2c(c1)c(-c1cccc(C(=O)O)c1)cn2CC1(C)COC1 [P-0102, 3-(5-(3,5-dimethylisoxazol-4-yl)-1-((3-methyloxetan-3-yl)methyl)-1H-pyrrolo[2,3-b]pyridin-3-yl)benzoic acid] was tested. Which IC50 did it give?
**A.** The IC50 was 1000 to 8000 nM.

**Q.** Which IC50 does the source give for COc1cc(C(=O)O)cc(OC)c1-c1cn([C@@H](C)c2ccccn2)c2ncc(-c3c(C)noc3C)cc12 [P-0103, (S)-4-(5-(3,5-dimethylisoxazol-4-yl)-1-(1-(pyridin-2-yl)ethyl)-1H-pyrrolo[2,3-b]pyridin-3-yl)-3,5-dimethoxybenzoic acid] here?
**A.** Its IC50 is 0.1 to 1000 nM.

**Q.** For Cc1noc(C)c1-c1cnc2c(CC3CCC3)cn(-c3ccc(C#N)c(C(=O)O)c3)c2c1 [P-0104, 2-cyano-5-(3-(cyclobutylmethyl)-6-(3,5-dimethylisoxazol-4-yl)-1H-pyrrolo[3,2-b]pyridin-1-yl)benzoic acid], which IC50 is on record?
**A.** Its IC50 is 0.1 to 1000 nM.

**Q.** With Cc1noc(C)c1-c1cnc2c(CC3CCC3)cn(-c3ccc(C(=O)O)c(C#N)c3)c2c1 [P-0105, 2-cyano-4-(3-(cyclobutylmethyl)-6-(3,5-dimethylisoxazol-4-yl)-1H-pyrrolo[3,2-b]pyridin-1-yl)benzoic acid] as the compound, how does the IC50 read?
**A.** Its IC50 is 0.1 to 1000 nM.

**Q.** Which IC50 does the source give for Cc1noc(C)c1-c1cnc2c(c1)c(-c1cncc(C(=O)O)n1)cn2[C@@H](C)c1ccccn1 [P-0106, (S)-6-(5-(3,5-dimethylisoxazol-4-yl)-1-(1-(pyridin-2-yl)ethyl)-1H-pyrrolo[2,3-b]pyridin-3-yl)pyrazine-2-carboxylic acid] here?
**A.** Its IC50 is 1000 to 8000 nM.

**Q.** How did the IC50 turn out when Cc1noc(C)c1-c1cnc2c(c1)c(-c1nccc(C(=O)O)n1)cn2[C@@H](C)c1ccccn1 [P-0107, (S)-2-(5-(3,5-dimethylisoxazol-4-yl)-1-(1-(pyridin-2-yl)ethyl)-1H-pyrrolo[2,3-b]pyridin-3-yl)pyrimidine-4-carboxylic acid] was run?
**A.** The IC50 was 1000 to 8000 nM.

**Q.** With CCOc1cc(C(=O)O)cc(F)c1-n1cc(CC2CCC2)c2ncc(-c3c(C)noc3C)cc21 [P-0108, 4-(3-(cyclobutylmethyl)-6-(3,5-dimethylisoxazol-4-yl)-1H-pyrrolo[3,2-b]pyridin-1-yl)-3-ethoxy-5-fluorobenzoic acid] as the compound, how does the IC50 read?
**A.** The IC50 was 0.1 to 1000 nM.

**Q.** CCOc1cc(C(=O)O)cc(OCC)c1-n1cc(CC2CCC2)c2ncc(-c3c(C)noc3C)cc21 [P-0109, 4-(3-(cyclobutylmethyl)-6-(3,5-dimethylisoxazol-4-yl)-1H-pyrrolo[3,2-b]pyridin-1-yl)-3,5-diethoxybenzoic acid] was tested. Which IC50 did it give?
**A.** The IC50 was 0.1 to 1000 nM.

**Q.** With Cc1noc(C)c1-c1cnc2c(CC3CCC3)cn(-c3ccc(C(=O)O)c4ccoc34)c2c1 [P-0110, 7-(3-(cyclobutylmethyl)-6-(3,5-dimethylisoxazol-4-yl)-1H-pyrrolo[3,2-b]pyridin-1-yl)benzofuran-4-carboxylic acid] as the compound, how does the IC50 read?
**A.** Its IC50 is 0.1 to 1000 nM.

**Q.** How did the IC50 turn out when Cc1noc(C)c1-c1cnc2c(CC3CCC3)cn(-c3c(OC(C)C)cc(C(=O)O)cc3OC(C)C)c2c1 [P-0111, 4-(3-(cyclobutylmethyl)-6-(3,5-dimethylisoxazol-4-yl)-1H-pyrrolo[3,2-b]pyridin-1-yl)-3,5-diisopropoxybenzoic acid] was run?
**A.** The IC50 was 0.1 to 1000 nM.

**Q.** How did the IC50 turn out when Cc1noc(C)c1-c1cnc2c(c1)c(-c1ccc(C(=O)O)cc1OC(C)C)cn2[C@@H](C)c1ccccn1 [P-0112, (S)-4-(5-(3,5-dimethylisoxazol-4-yl)-1-(1-(pyridin-2-yl)ethyl)-1H-pyrrolo[2,3-b]pyridin-3-yl)-3-isopropoxybenzoic acid] was run?
**A.** Its IC50 is 0.1 to 1000 nM.

**Q.** How did the IC50 turn out when CCCOc1cc(C(=O)O)ccc1-c1cn([C@@H](C)c2ccccn2)c2ncc(-c3c(C)noc3C)cc12 [P-0113, (S)-4-(5-(3,5-dimethylisoxazol-4-yl)-1-(1-(pyridin-2-yl)ethyl)-1H-pyrrolo[2,3-b]pyridin-3-yl)-3-propoxybenzoic acid] was run?
**A.** The IC50 was 0.1 to 1000 nM.
